Target: Hsp90α (Homo sapiens, UniProt P07900)
Assay: SPR
Type: binding

## CN1C(=O)[C@@]23C[C@]4([C@]56C[C@@]78SS[C@@](CO)(C(=O)N7[C@H]5Nc5ccccc56)N(C)C8=O)c5ccccc5N[C@@H]4N2C(=O)[C@]1(CO)SS3 [Chaetocin]
  Kd: 2.82 µM

From paper PMC7771846 (Biomolecules & Therapeutics, 2020)
